Assay results as given in paper PMC6131718 (Journal of medicinal chemistry, 2018).
Values after ≈ are worked out from the molar mass of the structure shown. Where two headings read alike, the source gives them in different places.

How the values were obtained:
PDC-3 = PDC-3 (Pseudomonas aeruginosa, UniProt P24735, T105A); assay type: biochemical
[1] = test system: KPC-2 (donor) and TEM-1 (recipient); assay: Acyl-transfer ESI-MS, KPC-2 donor to TEM-1 recipient; assay type: biochemical; settings: equimolar KPC-2:DBO preincubated 1 min, then equimolar TEM-1
[2] = test system: Enterobacteriaceae that expressed blaOXA-48 or blaOXA-48 mutants; assay type: cell-based; settings: for MIC: Escherichia coli, E. coli Jefferson 17,75 OXA-48, agent alone
ADC-7 = ADC-7 (Acinetobacter baumannii, UniProt Q6DRA1); assay: Steady-state inhibitor kinetics; assay type: biochemical; settings: for lower Ki app values compared to those of avibactam and relebactam: ADC-7
OXA-23 = OXA-23 (Acinetobacter baumannii, UniProt Q9L4P2); assay: Steady-state inhibitor kinetics; assay type: biochemical, A. baumannii
OXA-24/40 = OXA-24/40 (Acinetobacter baumannii, UniProt Q8RLA6); assay: biochemical; set-up: species or system A. baumannii
A. baumannii SL46 = assay: MIC against A. baumannii SL46; assay type: cell-based; settings: Acinetobacter baumannii
[3] = test system: E. coli DH10B expressing a single β-lactamase; assay type: cell-based; settings: Escherichia coli, agent alone
[4] = test system: Escherichia coli DH10B (control); assay: MIC, broth microdilution, Escherichia coli DH10B; assay type: cell-based
A. baumannii NCTC 13303 = assay: MIC against A. baumannii NCTC 13303; assay type: cell-based
KPC-2 [5] = biological target: T1, KPC-2 (Klebsiella pneumoniae, UniProt Q9F663); assay: biochemical
KPC-2 [6] = biological target: T1, KPC-2; settings: at 15 min; cited from earlier work
A. baumannii NCTC 13301 = assay: MIC against A. baumannii NCTC 13301; assay type: cell-based
A. baumannii SL04 = assay: MIC against clinical isolate A. baumannii SL04; assay type: cell-based
[7] = test system: TEM-1 (donor) and CTX-M-15 (recipient); settings: cited from earlier work
[8] = test system: A. baumannii strains (NCTC 13301, NCTC 13303, SL46); assay: Murine peritonitis model, summary over the three A. baumannii strains; assay type: in vivo; settings: supra-therapeutic doses, 6.25 mg/kg administered as two doses
[9] = test system: A. baumannii ΔblaADC with pWH1266 blaOXA-24/40; assay type: cell-based; settings: Acinetobacter baumannii, β-lactam alone; A. baumannii ΔblaADC pWH1266 blaOXA-24
[10] = test system: E. coli DH10B with pBR322-catI-blaKPC-2; assay: MIC, broth microdilution, isogenic E. coli DH10B with pBR322-catI-blaKPC-2; assay type: cell-based; settings: Escherichia coli, β-lactam alone; E. coli DH10B pBR322-catI-blaKPC-2
A. baumannii AADC = assay: MIC, broth microdilution, A. baumannii ΔblaADC parent strain; assay type: cell-based; settings: Acinetobacter baumannii
[11] = test system: A. baumannii ΔblaADC with pWH1266 blaOXA-23; assay: MIC, broth microdilution, isogenic A. baumannii ΔblaADC with pWH1266 blaOXA-23; assay type: cell-based; settings: Acinetobacter baumannii, β-lactam alone; A. baumannii ΔblaADC pWH1266 blaOXA-23
CMY-2 = settings: cited from earlier work
[12] = E. coli DH10B pBC SIC (−) KPC-2
[13] = E. coli DHIOB pBC SIC (−) PDC-3
[14] = Acinetobacter baumannii, NCTC13303
[15] = Acinetobacter baumannii, NCTC13301

For `O=C(NNC(=O)[C@@H]1CC[C@@H]2CN1C(=O)N2OS(=O)(=O)O)[C@@H]1CCNC1` [Compound 1, (2S,5R)-6-Sulfooxy-7-oxo-2-[((3R)-pyrrolidine-3-carbonyl)hydrazinocarbonyl]-1,6-diazabicyclo[3.2.1]octane], the “lower Ki app values compared to those of avibactam and relebactam” value (“lower Ki app values compared to those” below) (PDC-3) was 18–25 fold, the “time required for transfer from KPC-2 to TEM-1” value [1] was 5 min and the MIC [2] was > 16 µg/mL. The “lower Ki app values compared to those” value (ADC-7) was 3–8 fold, the Ki (OXA-23) was > 100 µM and the Ki (OXA-24/40) was > 100 µM.
With `CO/N=C(\C(=O)N[C@@H]1C(=O)N2C(C(=O)[O-])=C(C[N+]3(C)CCCC3)CS[C@H]12)c1csc(N)n1` [cefepime] the MIC (A. baumannii SL46) was > 512 µg/mL, the MIC [3, 12] was 0.5 µg/mL (≈ 1.04 µM) and the MIC ([3]; E. coli DHIOB pBC SIC (−) OXA-48) was < 0.12 µg/mL. The MIC [3, 13] was < 0.12 µg/mL, the MIC [4] was < 0.12 µg/mL and the MIC (A. baumannii NCTC 13303; [14]) was 64 µg/mL (≈ 133 µM).
With `N#C[C@@H]1CC[C@@H]2CN1C(=O)N2OS(=O)(=O)[O-].[Na+]` [Compound 3, (2S,5R)-1,6-Diazabicyclo[3.2.1]octane-2-carbonitrile-7-oxo-6-(sulfooxy)-monosodium Salt] the “time for transfer from KPC-2 to TEM-1” value [1] was ≤ 15 s, the Kd (ADC-7) was 0.053 ± 0.007 µM and the Ki (ADC-7) was 8 ± 0.8 µM. For the same molecule, the Kd (OXA-23) was 0.029 ± 0.004 µM, the Ki (OXA-23) was 8 ± 1 µM and the Kd (OXA-24/40) was 0.042 ± 0.006 µM. For the same molecule, the Ki (OXA-24/40) was 5 ± 0.5 µM, the Kd (KPC-2 [5]) was 0.0019 ± 0.0002 µM and the Ki (KPC-2 [5]) was 0.32 ± 0.03 µM.
For `O=C(O)[C@H]1/C(=C/CO)O[C@@H]2CC(=O)N21` [clavulanic acid], the “turnover number (tn)” value (KPC-2 [6]) is given as 2,500.
In the case of colistin, the MIC (A. baumannii NCTC 13303; A. baumannii NCTC 13303, 3 at a fixed 8 μg/mL, cefepime-2 at 1:1 ratio) is reported as 0.5 µg/mL, the MIC (A. baumannii NCTC 13301; A. baumannii NCTC 13301, 3 at a fixed 8 μg/mL, cefepime-2 at 1:1 ratio) is reported as 1 µg/mL and the MIC (A. baumannii SL04; A. baumannii SL04 carrying blaOXA-23 and blaOXA-51) is reported as 2 µg/mL.
In the case of `NC(=O)[C@@H]1CC[C@@H]2CN1C(=O)N2OS(=O)(=O)O` [avibactam], the “time of maximum transfer from TEM-1 to CTX-M-15” value [7] is listed as 30 min.
With `O.O=C(NC1CCNCC1)[C@@H]1CC[C@@H]2CN1C(=O)N2OS(=O)(=O)O` [relebactam] the “restoration of susceptibility to cefepime and meropenem” value ([2]; clinical isolates of Enterobacteriaceae expressing blaOXA-48 or mutants) was “less effective”, the Ki (OXA-23) was > 100 µM and the Ki (OXA-24/40) was > 100 µM.
With `CN(C)c1cc(NC(=O)CNC(C)(C)C)c(O)c2c1C[C@H]1C[C@H]3[C@H](N(C)C)C(O)=C(C(N)=O)C(=O)[C@@]3(O)C(O)=C1C2=O` [tigecycline] the “protection of infected mice” value [8] was “failed to protect infected mice”, the MIC (A. baumannii NCTC 13303; [14]) was 1 µg/mL (≈ 1.71 µM) and the MIC (A. baumannii NCTC 13301; [15]) was 1 µg/mL (≈ 1.71 µM).
In the case of `C[C@@H](O)[C@H]1C(=O)N2C(C(=O)O)=C(S[C@@H]3CN[C@H](C(=O)N(C)C)C3)[C@H](C)[C@H]12` [meropenem], the MIC [3, 12] is reported as < 0.12 µg/mL, the MIC [3, 13] is reported as < 0.12 µg/mL and the MIC [9] is reported as ≥ 8 µg/mL. The MIC [4] was < 0.12 µg/mL, the MIC (A. baumannii NCTC 13303; [14]) was 256 µg/mL (≈ 668 µM) and the MIC (A. baumannii NCTC 13301; [15]) was 32 µg/mL (≈ 83.4 µM). For the same molecule, the MIC [10] was ≥ 8 µg/mL, the MIC (A. baumannii AADC) was < 0.12 µg/mL and the MIC [11] was ≥ 8 µg/mL.
In the case of `C[C@]1(Cn2ccnn2)[C@H](C(=O)O)N2C(=O)C[C@H]2S1(=O)=O` [tazobactam], the Ki (CMY-2) is listed as 40 µM.
With `O=C(NNC(=O)[C@@H]1CC[C@@H]2CN1C(=O)N2OS(=O)(=O)O)[C@@H]1CCCNC1` [Compound 2, (2S,5R)-6-Sulfooxy-7-oxo-2-[((3R)-piperidine-3-carbonyl)hydrazinocarbonyl]-1,6-diazabicyclo[3.2.1]octane] the “lower Ki app values compared to those” value (PDC-3) was 18–25 fold, the “time required for transfer from KPC-2 to TEM-1” value [1] was 5 min and the MIC [2] was > 16 µg/mL. For the same molecule, the “lower Ki app values compared to those” value (ADC-7) was 3–8 fold, the Ki (OXA-23) was > 100 µM and the Ki (OXA-24/40) was > 100 µM. For the same molecule, the MIC (A. baumannii SL04; Acinetobacter baumannii, SL04) was ≥ 512 µg/mL.
